For data set [1], the system named is LFA-1 receptor on Molt-3 T-cells. The data set can be described thus: protection against MTX-cIBR toxicity in Molt-3 T-cells (LFA-1 mediated internalization, MTT). It is filed as cell-based, human. To be noted: similar experiment. Here is the method:
As a control, some cells were left untreated. […] As a reference for minimal metabolic activity, 10 mM of the succinate dehydrogenase inhibitor iodoacetamide (IAA) was added to untreated wells. […] The tubes were spun to pellet the cells and the supernatant was carefully removed. The formazan crystals were dissolved in 200 μL of 0.04 N HCl in isopropanol; the tubes were sonicated for 5 min to completely dissolve crystals and then re-centrifuged to pelletize the cell debris. 100 μL aliquots of the supernatant solutions were removed and transferred to a 96-well microtiter plate. The optical density of the solution was measured at 570 nm using a UV plate reader.

For data set [2], the system named is Molt-3 T-cells. The data set can be described thus: cells. It is filed as cell-based, human. The note with it: 72 h. The protocol: (§1) The cytotoxicity of MTX-peptide conjugates was evaluated in different cell lines, lincluding Molt-3 and L1210 T-cells, and KB epithelial cells. […] After 72 h of growth, the relative numbers of viable cells were determined according to the manufacture's protocols for measuring cytotoxicity using a Dojindo Cytotoxicity Assay Cell counting Kit-8 (CCK-8). To measure the cell viability, 10 μL of CCK-8 was added to each well and the plate was incubated for 4 h. After incubation, the absorbance at 450 nm was measured using a UV plate reader. Cell growth in the presence of different drug concentrations was calculated relative to the value obtained in the absence of the drug. […] Serial dilutions of compounds were prepared in un-supplemented medium, and 110 μL of drug solution was aliquoted in duplicate into 900 μL cell suspensions. Control flasks were treated with 110 μL of un-supplemented medium. Cells were incubated under standard conditions for 48 h, sufficient to allow control cells to divide approximately four times. Growth inhibition was determined by counting the cells on a Z2 model Coulter Counter (Coulter Electronics Ltd, Luton, Beds, UK). The IC50 values were calculated using Graphpad Prism software (Graphpad Software, San Diego, Calif.). KB MTT Assay: KB cells were seeded in Falcons® 96 well plates (Becton-Dickinson Labware Europe, France) at a density of 1,500 cells/well in a volume of 0.18 mL culture medium and incubated under standard culture conditions for 24 h after seeding to allow entry into the exponential phase of cell growth. […] In each assay condition, control cells were treated with 20 μL of un-supplemented medium instead of drug. Cells were incubated for 96 h to allow control cells to divide approximately four times before cell viability was determined by MTT assay.

The subject of data set [3] is L1210 mouse leukemia cells. The data set can be described thus: cells. The note with it: 48 h. The format is cell-based. Here is the method:
as §1

In data set [4] the test system is Molt-3 T-cells. The data set can be described thus: propidium iodide assay of growth and cytotoxicity in Molt-3 T-cells. To be noted: tested 0.1-500 μM. It is filed as cell-based, human.
Data set [5] has as its system dihydrofolate reductase enzyme (DHFR). The data set is described as follows: DHFR inhibition assay (spectrophotometric NADPH loss, Dixon plots). The format is biochemical. The protocol: Into a 2.0 mL cuvette, a 1.0 mL solution of 0.11 mM β-NADPH and 33 μL of 2.3 mM DHFA were aliquoted and allowed to equilibrate. […] To begin the assay, 33 μL of DHFR (0.12-0.25 unit/mL with 0.1% BSA) was added to the reaction mixture. The absorbance of the reaction mixture was then recorded continuously for 5 min at 340 nm and the enzyme activity was determined by the rate of NADPH loss. Enzyme activity was determined for three different fixed concentrations of substrate (0.19, 1.9 and 10.0 mM DHFA).

For data set [6], the system named is KB epithelial cells. The data set can be described thus: KB MTT assay (96 h). The format is cell-based, human. The protocol:
Human KB epithelial l cells: The human KB epithelial cell line was a gift from Dr Gerrit Jansen (University Free Hospital, Amsterdam, Netherlands) and was developed to overexpress the membrane folate binding protein (mFBP). Cells were cultured in RPMI 1640 medium without folic acid and supplemented with 10% heat inactivated dialyzed FCS (50 mL volume), 0.2 mL of 50 μg/mL gentamicin, 1 mL of 50 μg/mL amphotericin B, and 5 mL of 200 mM L-glutamine. The folate source, 20 nM (R,S)-LV, was added to supply cells with adequate growth conditions.
The cytotoxicity of MTX-peptide conjugates was evaluated in different cell lines, lincluding Molt-3 and L1210 T-cells, and KB epithelial cells. […] After 72 h of growth, the relative numbers of viable cells were determined according to the manufacture's protocols for measuring cytotoxicity using a Dojindo Cytotoxicity Assay Cell counting Kit-8 (CCK-8). To measure the cell viability, 10 μL of CCK-8 was added to each well and the plate was incubated for 4 h. After incubation, the absorbance at 450 nm was measured using a UV plate reader. Cell growth in the presence of different drug concentrations was calculated relative to the value obtained in the absence of the drug. […] Growth inhibition was determined by counting the cells on a Z2 model Coulter Counter (Coulter Electronics Ltd, Luton, Beds, UK). The IC50 values were calculated using Graphpad Prism software (Graphpad Software, San Diego, Calif.). […] Cells were incubated for 96 h to allow control cells to divide approximately four times before cell viability was determined by MTT assay.
The number of viable cells after a 96-h incubation was determined by assessing their ability to reduce MTT ([…]). […] The absorbance of the solution in each well was measured at 540 nm on a MCC/340 model Titertak Multiscan® plate reader (Labsystems/Flow Laboratories, Oxfordshire, UK). The results were analyzed using Ascent Research software v.2.1 (Labsystems, UK).
(Formazan colour is commonly taken as a measure of viable cells.)

Data set [7] relates to Molt-3 T-cells/Calu-3 lung epithelial monolayers. The data set is described as follows: heterotypic adhesion of Molt-3 T-cells to Calu-3 lung epithelial monolayers. To be noted: for effect on adherence of Molt-3 T-cells to Calu-3 monolayers: IFN-γ-induced Calu-3, PMA-activated Molt-3. It is filed as cell-based, human. The protocol:
Molt-3, Caco-2 and Calu-3 cell lines were obtained from the American Type Culture Collection (Rockville, Md.). Molt-3 and Caco-2 cells were maintained and grown using known methods. Briefly, the Caco-2 cell-line was grown as monolayers in Dulbecco's modified Eagle's medium (DMEM) with 25 mM glucose containing 10% FBS, 1% nonessential amino acids, 1 mM Na-pyruvate, 1% L-glutamine and […] of penicillin/streptomycin. Cells were grown in 75-cm^2 tissue culture flasks (Falcon) for maintenance purposes and in a 48-well cell culture cluster (Costar) for heterotypic-adhesion experiments. Before confluency was reached, Caco-2 cells were induced with 100 U/mL IFN-γ for 24 h to up-regulate the ICAM-1 expression. Calu-3, a lung epithelial cell line, was maintained in a 1:1 mixture of Ham's F12:DMEM containing 10% FBS and 100 μg/mL penicillin/streptomycin. Upon reaching 90% confluency (approximately 4-5 days), cells were subcultured at a 1:2 split ratio using 0.25% trypsin/0.1% EDTA. Calu-3 cells were induced with 500 U/mL IFN-γ for 48 h to up-regulate the ICAM-1 expression. All cell lines were grown in a 95% humidified/5% CO2 atmosphere at 37° C.
Heterotypic Adhesion Experiments with LFA-1 derived peptides—Two heterotypic cell adhesion systems were used in this work. The adhesion between Molt-3 T-cells/Calu-3 lung epithelial monolayers was used to assess the inhibitory activities of cLAB.L and cLAB.2L; Molt-3 T-cells/Caco-2 colon epithelial monolayers system was for cLAB.L and its derivatives. Briefly, Calu-3 or Caco-2 cell monolayers were pretreated with peptide solution prior to the adherence of fluorescence-labeled Molt-3 cells. […] Soluble lysates were transferred to 96-well (clear-bottom, black-sided) plates (Costar) for reading in a microplate fluorescence analyzer (Bio-Tek FL600) to give relative fluorescence (FL), i.e., the reading of fluorescence intensity of adherent corrected with the reading of cell monolayers only. Data were presented as the percentage of T-cell adherence calculated as follows: […]

“Also recorded” adds a separate entry of the source. Starred links: 1 amine or outer side, 2 acyl side, 3 side chain; linkers in the order of their positions; H or OH if unused. Positions of bridges follow the written chain, without caps; N, C: chain ends. Non-standard residues stand in square brackets, D forms with d. Residues, ends and D or L forms follow the SMILES beside them. *: point of attachment. DAMPA = CN(Cc1cnc2nc(N)nc(N)c2n1)c1ccc(C(=O)*)cc1; γGlu = O=C(O)[C@H](CCC(=O)[*:2])N[*:1]; Pen = CC(C)(S)[C@H](N)C(=O)O

Take `CC(C)C[C@@H]1NC(=O)[C@H](C(C)C)NC(=O)[C@H](CO)NC(=O)CNC(=O)CNC(=O)[C@H](CCCNC(=N)N)NC(=O)[C@@H]2CCCN2C(=O)[C@@H](N)C(C)(C)SSC[C@@H](C(=O)O)NC(=O)CNC(=O)[C@H]([C@@H](C)O)NC(=O)[C@H](C(C)C)NC1=O` [cIBR peptide] (H-[Pen]PRGGSVLVTGC-OH; disulfide 1-12): the “effect on cytotoxicity of MTX-cIBR” value in data set [1] is given as “reduced the cytotoxicity of MTX-cIBR in a concentration dependent manner”.

As to `CC(C)[C@H](NC(=O)[C@H](CO)NC(=O)CNC(=O)CNC(=O)[C@H](CCCNC(=N)N)NC(=O)[C@@H]1CCCN1C(=O)CC[C@H](NC(=O)c1ccc(N(C)Cc2cnc3nc(N)nc(N)c3n2)cc1)C(=O)O)C(N)=O` [MTX-PRGGSV] ({DAMPA-γGlu}-PRGGSV-NH2), the IC50 (usually the midpoint of a concentration-inhibition curve) amounted to 5.13 ± 0.6 µM in data set [2] and 1.6 ± 0.4 µM in data set [3].

As for cyclol,12-PenDLSTSLDDLRC [cLBE.L], in data set [4], the “concentration at which total growth inhibition emerged in Molt-3 cells” value was found to be 100 µM.

Consider `CC[C@H](C)[C@@H]1NC(=O)[C@H](C(C)C)NC(=O)[C@H](CCCCN)NC(=O)[C@H](CO)NC(=O)[C@@H]2CCCN2C(=O)[C@H](CO)NC(=O)[C@H](C(C)C)NC(=O)[C@H](CO)NC(=O)[C@H]([C@@H](C)O)NC(=O)[C@H](CCC(N)=O)NC(=O)[C@@H](NC(=O)CC[C@H](NC(=O)c2ccc(N(C)Cc3cnc4nc(N)nc(N)c4n3)cc2)C(=O)O)C(C)(C)SSC[C@@H](C(=O)O)NC1=O` [MTX-cIBL] ({DAMPA-γGlu}-[Pen]QTSVSPSKVIC-OH; disulfide 1-12), for which the “Km relative to that of MTX” value in data set [5] was “approximately 4 fold”. Further, in data set [5] (from Dixon plots), the Ymax is 4.26 ± 0.07 × 10^−4. Besides, the figures for the IC50 in data set [2], in data set [3] and in data set [6] were 2.68 ± 0.2 µM, 9.14 ± 1 µM and over 10 µM, respectively.

With `CC[C@H](C)[C@H](NC(=O)[C@@H](NC(=O)CC[C@H](NC(=O)c1ccc(N(C)Cc2cnc3nc(N)nc(N)c3n2)cc1)C(=O)O)C(C)C)C(=O)N[C@@H](CC(C)C)C(=O)N1CCC[C@H]1C(=O)N[C@@H](CCCNC(=N)N)C(=O)NCC(N)=O` [MTX-VILPRG] ({DAMPA-γGlu}-VILPRG-NH2), the IC50 in data set [2] came to 9.12 ± 0.2 µM; in data set [3] it was 0.7 ± 0.3 µM.

Regarding “Xaa-Gly Val Asp Val Asp Glp Asp Gly Glu Thr-Cys [cLAB.2L, cyclic domain V peptide of LFA-1]”, the “effect on adherence of Molt-3 T-cells to Calu-3 monolayers” value in data set [7] is reported as “did not interfere; also recorded: no significant effect”.

Take cyclol,12-PenITDGEATDSGC [cLAB.L]: the “concentration at which total growth inhibition emerged in Molt-3 cells” value in data set [4] stood at 100 µM. Moreover, the “effect on adherence of Molt-3 T-cells to Calu-3 monolayers” value in data set [7] is “significantly reduces”. Further, the “inhibition of heterotypic cell adhesion” value in data set [7] (IFN-γ-induced Calu-3 monolayers, BCECF labeled Molt-3 cells) is on record as “about 40%”.
